Results on 19 compounds are retold here after patent publication US20240217989A1, “Heteroaryl Fluoroalkenes As DGK Inhibitors” (Incyte Corporation, priority 2022, published 2024).

The target in one test is T1, DGKα (Homo sapiens, UniProt P23743).
T1 construct: His; purchased Signal Chem D21-10BH
The test can be described thus: In vitro DGKα inhibition assay (ADP-Glo). In kind it is biochemical. The following applies: His-tagged human recombinant enzyme; 0.1 nM DGKα, 50 μM ATP, 20 μM DLG; 90 minute incubation; ADP-Glo luminescence. As for the experimental part:
(§1) The DGKα and DGKζ biochemical reactions were performed using His-tagged human recombinant enzymes (Signal Chem, DGKα, #D21-10BH; DGKζ, #D30-10H)) and DLG (Dilauroyl-sn-glycerol) lipid substrate (Signal Chem, #D430-59). ADP-Glo assay was performed using ADP-Glo™ kinase Assay kit (Promega, #V9104). The reactions were carried out in assay buffer containing 40 mM Tris, pH 7.5, 0.1% CHAPS, 0.1% Prionex, 40 mM NaCl, 5 mM MgCl2, 1 mM CaCl2, and 1 mM DTT. DGKα reactions contained 0.1 nM DGKα, 50 μM ATP, and 20 μM DLG. And DGKζ reactions contained 0.4 nM DGKζ, 30 μM ATP, and 20 μM DLG. For compound inhibition studies, 40 nL test compound in DMSO was added to wells of white polystyrene plates in 384-well (Greiner, #784075) or 1536-well format (Greiner, #782075). Compounds were added with top concentration of 2 mM with 11 point, 3-fold dilution series. Enzyme solution (contains 2× DGK enzyme concentration in 1× assay buffer) was added to the plate in 2 μL/well volume, followed by 2 μL/well of substrate solution (contains 2× concentration of ATP and DLG substrate in 1× assay buffer). Plates were then centrifuged for 1 min at 1200 RPM and sealed or lidded. For 4 μL reaction volume, test compounds were therefore diluted 100× to final top concentration of 20 μM. After 90 minute incubation, reactions were quenched by addition of 2 μL/well Promega ADP-Glo Reagent, followed by centrifugation and lidding. After 60 min incubation, 2 μL/well Promega Kinase Detection Reagent was added, plates centrifuged, and incubated for 30 min. Plates were then read using Luminescence method on BMG PHERAstar FSX plate reader. Percent inhibition was calculated and IC50s were determined using 4-parameter fit in Genedata Screener. Labcyte Echo acoustic dispenser was used for compound addition, and Formulatrix Tempest liquid handler was used for all reagent dispenses.

A further test deals with DGKζ (Homo sapiens, UniProt Q13574). Kind of test: In vitro DGKζ inhibition assay (ADP-Glo). The following applies: His-tagged human recombinant enzyme; 0.4 nM DGKζ, 30 μM ATP, 20 μM DLG; 90 minute incubation; ADP-Glo luminescence. In kind it is biochemical. As for the experimental part:
as §1
In general terms: In ADP-Glo the light output rises with the ADP produced.

T1 sequence (P23743 whole entry): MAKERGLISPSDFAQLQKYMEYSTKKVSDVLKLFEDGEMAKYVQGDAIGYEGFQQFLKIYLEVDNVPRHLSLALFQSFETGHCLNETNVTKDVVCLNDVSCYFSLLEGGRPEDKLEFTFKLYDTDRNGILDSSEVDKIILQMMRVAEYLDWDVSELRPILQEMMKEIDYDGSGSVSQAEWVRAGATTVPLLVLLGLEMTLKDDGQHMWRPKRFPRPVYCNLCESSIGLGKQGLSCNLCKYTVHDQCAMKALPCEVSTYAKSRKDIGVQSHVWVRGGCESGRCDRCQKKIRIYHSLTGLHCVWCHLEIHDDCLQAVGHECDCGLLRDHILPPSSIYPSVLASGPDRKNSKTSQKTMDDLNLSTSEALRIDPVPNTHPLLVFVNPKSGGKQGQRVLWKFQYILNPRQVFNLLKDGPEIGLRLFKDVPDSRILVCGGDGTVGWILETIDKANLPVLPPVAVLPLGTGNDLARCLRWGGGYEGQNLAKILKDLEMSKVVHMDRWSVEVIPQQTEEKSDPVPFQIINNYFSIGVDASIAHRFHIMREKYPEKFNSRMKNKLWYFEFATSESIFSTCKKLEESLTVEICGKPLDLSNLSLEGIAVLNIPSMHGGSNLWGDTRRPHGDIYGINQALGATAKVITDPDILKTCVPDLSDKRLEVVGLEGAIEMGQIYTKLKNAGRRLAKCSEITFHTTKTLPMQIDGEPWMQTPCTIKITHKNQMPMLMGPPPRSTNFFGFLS
Sequence of DGKζ (Q13574 whole entry): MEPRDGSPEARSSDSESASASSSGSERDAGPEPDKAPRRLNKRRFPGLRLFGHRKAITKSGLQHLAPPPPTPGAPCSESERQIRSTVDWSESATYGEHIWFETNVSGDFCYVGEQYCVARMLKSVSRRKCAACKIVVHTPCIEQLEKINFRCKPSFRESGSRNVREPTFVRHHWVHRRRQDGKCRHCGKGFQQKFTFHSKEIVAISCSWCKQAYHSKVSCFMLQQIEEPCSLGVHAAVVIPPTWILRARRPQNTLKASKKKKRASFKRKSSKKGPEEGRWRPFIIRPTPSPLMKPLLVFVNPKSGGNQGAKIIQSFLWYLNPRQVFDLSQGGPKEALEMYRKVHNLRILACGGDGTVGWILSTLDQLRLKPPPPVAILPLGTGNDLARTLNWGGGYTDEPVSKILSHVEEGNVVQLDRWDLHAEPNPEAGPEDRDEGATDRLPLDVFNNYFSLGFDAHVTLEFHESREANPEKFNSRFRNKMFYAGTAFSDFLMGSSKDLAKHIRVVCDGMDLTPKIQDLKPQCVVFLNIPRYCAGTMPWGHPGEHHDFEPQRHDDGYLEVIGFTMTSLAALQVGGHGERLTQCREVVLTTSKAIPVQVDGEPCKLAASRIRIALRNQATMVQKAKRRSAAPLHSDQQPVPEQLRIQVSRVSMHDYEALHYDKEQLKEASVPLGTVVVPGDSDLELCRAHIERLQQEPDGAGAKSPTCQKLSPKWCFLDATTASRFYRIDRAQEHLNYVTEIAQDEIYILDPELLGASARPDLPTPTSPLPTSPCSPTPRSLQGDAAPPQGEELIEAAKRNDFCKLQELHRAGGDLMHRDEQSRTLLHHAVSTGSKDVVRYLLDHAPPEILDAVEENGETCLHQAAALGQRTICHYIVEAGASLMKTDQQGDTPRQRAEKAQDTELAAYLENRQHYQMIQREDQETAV

Consider `[2H]c1c([2H])c([2H])c(Oc2ccc(/C=C(\F)c3cncc(N4CCC(F)(F)C4)n3)c(N3CCCC4(CCN(CC5CC5)CC4)C3)c2C(F)(F)F)c([2H])c1[2H]` [Example 21, (Z)-9-(Cyclopropylmethyl)-2-(6-(2-(6-(3,3-difluoropyrrolidin-1-yl)pyrazin-2-yl)-2-fluorovinyl)-3-(phenoxy-ds)-2-(trifluoromethyl)phenyl)-2,9-diazaspiro[5.5]undecane], for which the IC50 on DGKα and at DGKζ was not above 20 nM in each case.

On to `[2H]c1c([2H])c([2H])c(Oc2ccc(/C=C(\F)c3cncc(N4CCC(F)(F)C4)n3)c(N3CCCC4(CCN(CC)CC4)C3)c2C(F)(F)F)c([2H])c1[2H]` [Example 22, (Z)-2-(6-(2-(6-(3,3-Difluoropyrrolidin-1-yl)pyrazin-2-yl)-2-fluorovinyl)-3-(phenoxy-d5)-2-(trifluoromethyl)phenyl)-9-ethyl-2,9-diazaspiro[5.5]undecane], for which the IC50 on DGKα and on DGKζ was not above 20 nM in each case.

Turning to `F/C(=C\c1ccc(Oc2ccccc2)c(C(F)(F)F)c1N1CCOC2(CCN(CC3CC3)CC2)C1)c1nccc(-c2ccnnc2)n1` [Example 23, (Z)-9-(Cyclopropylmethyl)-4-(6-(2-fluoro-2-(4-(pyridazin-4-yl)pyrimidin-2-yl)vinyl)-3-phenoxy-2-(trifluoromethyl)phenyl)-1-oxa-4,9-diazaspiro[5.5]undecane], the IC50 at DGKα was 20 to 200 nM; at DGKζ it was not above 20 nM.

On to `CCN1CCC2(CC1)CN(c1c(/C=C(\F)c3nccc(-c4ccnnc4)n3)ccc(Oc3ccccc3)c1C(F)(F)F)CCO2` [Example 24, (Z)-9-Ethyl-4-(6-(2-fluoro-2-(4-(pyridazin-4-yl)pyrimidin-2-yl)vinyl)-3-phenoxy-2-(trifluoromethyl)phenyl)-1-oxa-4,9-diazaspiro[5.5]undecane], for which the IC50 at DGKα and at DGKζ was not above 20 nM in each case.

Take `COCCN1CCC2(CC1)CN(c1c(/C=C(\F)c3nccc(-c4ccnnc4)n3)ccc(Oc3ccccc3)c1C(F)(F)F)CCO2` [Example 25, (Z)-4-(6-(2-Fluoro-2-(4-(pyridazin-4-yl)pyrimidin-2-yl)vinyl)-3-phenoxy-2-(trifluoromethyl)phenyl)-9-(2-methoxyethyl)-1-oxa-4,9-diazaspiro[5.5]undecane]: the IC50 at DGKα and at DGKζ was not above 20 nM in each case.

For `COCCN1CCC2(CC1)CN(c1c(/C=C(\F)c3cccc(-c4ccnnc4)n3)ccc(Oc3ccccc3)c1C(F)(F)F)CCO2` [Example 26, (Z)-4-(6-(2-Fluoro-2-(6-(pyridazin-4-yl)pyridin-2-yl)vinyl)-3-phenoxy-2-(trifluoromethyl)phenyl)-9-(2-methoxyethyl)-1-oxa-4,9-diazaspiro[5.5]undecane], the IC50 on DGKα and at DGKζ was not above 20 nM throughout.

Take `F/C(=C\c1ccc(Oc2ccccc2)c(C(F)(F)F)c1N1CCOC2(CCN(CC3CC3)CC2)C1)c1cccc(-c2ccnnc2)n1` [Example 27, (Z)-9-(Cyclopropylmethyl)-4-(6-(2-fluoro-2-(6-(pyridazin-4-yl)pyridin-2-yl)vinyl)-3-phenoxy-2-(trifluoromethyl)phenyl)-1-oxa-4,9-diazaspiro[5.5]undecane]: the 50% inhibitory concentration (IC50) on DGKα and at DGKζ was not above 20 nM in each case.

`F/C(=C\c1ccc(Oc2ccccc2)c(C(F)(F)F)c1N1CCCC2(CCN(CC3CC3)CC2)C1)c1nccc(-c2ccnnc2)n1` [Example 28, (Z)-9-(Cyclopropylmethyl)-2-(6-(2-fluoro-2-(4-(pyridazin-4-yl)pyrimidin-2-yl)vinyl)-3-phenoxy-2-(trifluoromethyl)phenyl)-2,9-diazaspiro[5.5]undecane]: the IC50 on DGKα and at DGKζ was not above 20 nM in each case.

As for `F/C(=C\c1ccc(Oc2ccccc2)c(C(F)(F)F)c1N1CCCC2(CCN(CC3CC3)CC2)C1)c1cncc(-c2ccnnc2)n1` [Example 29, (Z)-9-(Cyclopropylmethyl)-2-(6-(2-fluoro-2-(6-(pyridazin-4-yl)pyrazin-2-yl)vinyl)-3-phenoxy-2-(trifluoromethyl)phenyl)-2,9-diazaspiro[5.5]undecane], the concentration for half-maximal inhibition (IC50) on DGKα and on DGKζ was not above 20 nM throughout.

Take `F/C(=C\c1ccc(Oc2ccccc2)c(C(F)(F)F)c1N1CCCC2(CCN(C3CCC3)CC2)C1)c1nccc(-c2ccnnc2)n1` [Example 30, (Z)-9-Cyclobutyl-2-(6-(2-fluoro-2-(4-(pyridazin-4-yl)pyrimidin-2-yl)vinyl)-3-phenoxy-2-(trifluoromethyl)phenyl)-2,9-diazaspiro[5.5]undecane]: the IC50 on DGKα and on DGKζ was not above 20 nM throughout.

For the compound `COCCN1CCC2(CCCN(c3c(/C=C(\F)c4nccc(-c5ccnnc5)n4)ccc(Oc4ccccc4)c3C(F)(F)F)C2)CC1` [Example 31, (Z)-2-(6-(2-Fluoro-2-(4-(pyridazin-4-yl)pyrimidin-2-yl)vinyl)-3-phenoxy-2-(trifluoromethyl)phenyl)-9-(2-methoxyethyl)-2,9-diazaspiro[5.5]undecane], the IC50 at DGKα and on DGKζ was not above 20 nM each time.

For the compound `CCN1CCC2(CCCN(c3c(/C=C(\F)c4nccc(-c5ccnnc5)n4)ccc(Oc4ncccc4F)c3C(F)(F)F)C2)CC1` [Example 32, (Z)-9-Ethyl-2-(6-(2-fluoro-2-(4-(pyridazin-4-yl)pyrimidin-2-yl)vinyl)-3-((3-fluoropyridin-2-yl)oxy)-2-(trifluoromethyl)phenyl)-2,9-diazaspiro[5.5]undecane], the IC50 at DGKα and at DGKζ was not above 20 nM throughout.

Regarding `CCN1CCC2(CCCN(c3c(/C=C(\F)c4cccc(-c5ccnnc5)n4)ccc(Oc4ncccc4F)c3C(F)(F)F)C2)CC1` [Example 33, (Z)-9-Ethyl-2-(6-(2-fluoro-2-(6-(pyridazin-4-yl)pyridin-2-yl)vinyl)-3-((3-fluoropyridin-2-yl)oxy)-2-(trifluoromethyl)phenyl)-2,9-diazaspiro[5.5]undecane], the IC50 on DGKα and on DGKζ was not above 20 nM throughout.

Consider `CCN1CCC2(CC1)CN(c1c(/C=C(\F)c3cncc(-c4ccnnc4)n3)ccc(Oc3cccc(F)c3)c1C(F)(F)F)CCO2` [Example 34, (Z)-9-Ethyl-4-(6-(2-fluoro-2-(6-(pyridazin-4-yl)pyrazin-2-yl)vinyl)-3-(3-fluorophenoxy)-2-(trifluoromethyl)phenyl)-1-oxa-4,9-diazaspiro[5.5]undecane], for which the IC50 on DGKα and at DGKζ was not above 20 nM in each case.

For the compound `CCN1CCC2(CC1)CN(c1c(/C=C(\F)c3cncc(-c4ccnnc4)n3)ccc(Oc3ccccc3F)c1C(F)(F)F)CCO2` [Example 35, (Z)-9-Ethyl-4-(6-(2-fluoro-2-(6-(pyridazin-4-yl)pyrazin-2-yl)vinyl)-3-(2-fluorophenoxy)-2-(trifluoromethyl)phenyl)-1-oxa-4,9-diazaspiro[5.5]undecane], the IC50 on DGKα and on DGKζ was not above 20 nM each time.

Consider `F/C(=C\c1ccc(Oc2ccccc2F)c(C(F)(F)F)c1N1CCOC2(CCN(CC3CC3)CC2)C1)c1cncc(-c2ccnnc2)n1` [Example 36, (Z)-9-(Cyclopropylmethyl)-4-(6-(2-fluoro-2-(6-(pyridazin-4-yl)pyrazin-2-yl)vinyl)-3-(2-fluorophenoxy)-2-(trifluoromethyl)phenyl)-1-oxa-4,9-diazaspiro[5.5]undecane], for which the figures for the IC50 on DGKα and on DGKζ were 20 to 200 nM and not above 20 nM, respectively.

Take `F/C(=C\c1ccc(Oc2ccccc2F)c(C(F)(F)F)c1N1CCCC2(CCN(CC3CC3)CC2)C1)c1cncc(-c2ccnnc2)n1` [Example 37, (Z)-9-(Cyclopropylmethyl)-2-(6-(2-fluoro-2-(6-(pyridazin-4-yl)pyrazin-2-yl)vinyl)-3-(2-fluorophenoxy)-2-(trifluoromethyl)phenyl)-2,9-diazaspiro[5.5]undecane]: the half-maximal inhibitory concentration (IC50) on DGKα and at DGKζ was not above 20 nM in each case.

`F/C(=C\c1ccc(Oc2ccc(F)cc2F)c(C(F)(F)F)c1N1CCCC2(CCN(CC3CC3)CC2)C1)c1cncc(-c2ccnnc2)n1` [Example 38, (Z)-9-(Cyclopropylmethyl)-2-(3-(2,4-difluorophenoxy)-6-(2-fluoro-2-(6-(pyridazin-4-yl)pyrazin-2-yl)vinyl)-2-(trifluoromethyl)phenyl)-2,9-diazaspiro[5.5]undecane]: the IC50 at DGKα and at DGKζ was not above 20 nM each time.

Regarding `F/C(=C\c1ccc(Oc2ccccc2F)c(C(F)(F)F)c1N1CCCC2(CCN(CC3CC3)CC2)C1)c1nccc(-c2ccnnc2)n1` [Example 39, (Z)-9-(Cyclopropylmethyl)-2-(6-(2-fluoro-2-(4-(pyridazin-4-yl)pyrimidin-2-yl)vinyl)-3-(2-fluorophenoxy)-2-(trifluoromethyl)phenyl)-2,9-diazaspiro[5.5]undecane], the IC50 at DGKα and at DGKζ was not above 20 nM in each case.

One may read the IC50 as the concentration that inhibits the measured activity by half.
